The target of one test is Cytochrome P450 2D6 (Homo sapiens, UniProt P10635).
The target in test [1] is Voltage-gated inwardly rectifying potassium channel KCNH2 (Homo sapiens, UniProt Q12809).
For the next test, the target named is T1, Glucocorticoid receptor (Homo sapiens, UniProt P04150).
T1 sequence (P04150 whole entry): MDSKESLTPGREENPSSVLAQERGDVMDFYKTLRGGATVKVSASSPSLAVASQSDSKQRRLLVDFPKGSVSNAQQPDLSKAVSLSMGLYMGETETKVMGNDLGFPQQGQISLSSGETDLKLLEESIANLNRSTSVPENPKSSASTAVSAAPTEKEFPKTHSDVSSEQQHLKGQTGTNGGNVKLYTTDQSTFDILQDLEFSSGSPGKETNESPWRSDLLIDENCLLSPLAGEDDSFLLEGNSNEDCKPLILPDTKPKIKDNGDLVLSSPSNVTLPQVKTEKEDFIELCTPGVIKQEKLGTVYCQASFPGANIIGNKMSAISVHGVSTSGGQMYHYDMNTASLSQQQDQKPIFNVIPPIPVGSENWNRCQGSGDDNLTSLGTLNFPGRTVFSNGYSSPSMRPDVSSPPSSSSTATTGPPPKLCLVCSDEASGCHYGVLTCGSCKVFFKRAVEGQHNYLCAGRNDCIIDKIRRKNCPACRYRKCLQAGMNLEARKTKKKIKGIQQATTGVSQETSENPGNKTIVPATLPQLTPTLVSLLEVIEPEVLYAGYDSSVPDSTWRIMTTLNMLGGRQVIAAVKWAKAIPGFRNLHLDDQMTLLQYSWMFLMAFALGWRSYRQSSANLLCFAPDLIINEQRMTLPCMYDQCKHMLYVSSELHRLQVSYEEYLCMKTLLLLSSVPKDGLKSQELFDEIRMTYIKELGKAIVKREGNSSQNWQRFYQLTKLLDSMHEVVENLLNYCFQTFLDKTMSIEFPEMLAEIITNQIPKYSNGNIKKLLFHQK
Put plainly: biochemical.

The term IC50 denotes the point on the concentration scale where inhibition reaches its midpoint. Read a low IC50 as greater potency. A word on the Ki: it is the equilibrium dissociation constant of an inhibitor or competing ligand from its target.

Sequence of Voltage-gated inwardly rectifying potassium channel KCNH2 (Q12809 whole entry): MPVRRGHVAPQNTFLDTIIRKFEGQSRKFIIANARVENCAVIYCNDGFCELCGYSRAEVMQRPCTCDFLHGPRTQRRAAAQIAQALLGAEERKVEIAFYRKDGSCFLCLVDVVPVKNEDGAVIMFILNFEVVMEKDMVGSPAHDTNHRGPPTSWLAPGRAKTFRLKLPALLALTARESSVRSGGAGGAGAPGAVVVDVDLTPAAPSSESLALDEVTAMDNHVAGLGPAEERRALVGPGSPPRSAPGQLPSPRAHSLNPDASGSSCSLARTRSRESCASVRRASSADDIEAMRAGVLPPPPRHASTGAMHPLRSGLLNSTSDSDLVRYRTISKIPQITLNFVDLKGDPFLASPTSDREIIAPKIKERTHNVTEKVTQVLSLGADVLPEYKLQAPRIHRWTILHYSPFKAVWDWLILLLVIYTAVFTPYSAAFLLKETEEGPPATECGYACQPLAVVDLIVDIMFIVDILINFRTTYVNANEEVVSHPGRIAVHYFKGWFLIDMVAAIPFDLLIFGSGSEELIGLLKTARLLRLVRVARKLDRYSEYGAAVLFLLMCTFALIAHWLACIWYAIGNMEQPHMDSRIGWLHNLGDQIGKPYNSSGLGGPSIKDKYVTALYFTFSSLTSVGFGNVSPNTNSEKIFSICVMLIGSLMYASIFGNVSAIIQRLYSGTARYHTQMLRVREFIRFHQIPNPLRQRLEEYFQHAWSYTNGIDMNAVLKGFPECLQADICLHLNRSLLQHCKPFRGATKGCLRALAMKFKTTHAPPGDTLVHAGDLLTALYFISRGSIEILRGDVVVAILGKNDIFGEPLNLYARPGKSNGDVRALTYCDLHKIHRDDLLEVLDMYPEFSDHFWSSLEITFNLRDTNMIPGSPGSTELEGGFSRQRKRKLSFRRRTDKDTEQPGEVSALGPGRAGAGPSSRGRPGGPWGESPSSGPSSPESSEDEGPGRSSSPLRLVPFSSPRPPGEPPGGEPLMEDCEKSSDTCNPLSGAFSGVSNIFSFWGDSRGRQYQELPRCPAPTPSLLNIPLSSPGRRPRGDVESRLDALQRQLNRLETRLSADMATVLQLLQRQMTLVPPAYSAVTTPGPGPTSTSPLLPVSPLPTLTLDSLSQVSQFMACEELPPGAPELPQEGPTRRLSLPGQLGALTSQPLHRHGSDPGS
Sequence of Cytochrome P450 2D6 (P10635 whole entry): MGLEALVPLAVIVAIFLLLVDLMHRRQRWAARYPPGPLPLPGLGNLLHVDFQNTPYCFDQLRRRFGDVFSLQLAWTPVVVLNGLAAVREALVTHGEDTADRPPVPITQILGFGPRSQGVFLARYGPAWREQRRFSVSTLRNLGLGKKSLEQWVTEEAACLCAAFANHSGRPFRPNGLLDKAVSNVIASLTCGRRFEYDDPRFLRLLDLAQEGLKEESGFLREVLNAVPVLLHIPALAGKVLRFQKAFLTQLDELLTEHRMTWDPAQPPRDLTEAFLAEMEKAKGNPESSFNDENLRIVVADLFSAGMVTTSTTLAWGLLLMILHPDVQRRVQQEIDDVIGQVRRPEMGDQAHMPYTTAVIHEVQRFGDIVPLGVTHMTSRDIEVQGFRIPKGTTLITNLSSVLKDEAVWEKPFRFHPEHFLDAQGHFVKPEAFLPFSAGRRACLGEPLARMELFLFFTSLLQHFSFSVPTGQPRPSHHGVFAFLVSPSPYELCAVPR

On Cytochrome P450 2D6, `COc1cc(N)nc2[nH]c(-c3ccc(F)cc3)c(-c3ccncc3)c12` showed an IC50 of 0.2 µM.
In test [1], `OCCN1CCN(CCCN2c3ccccc3Sc3ccc(C(F)(F)F)cc32)CC1` [FLUPHENAZINE] displayed an IC50 of 5.71 µM and a Ki of 4.67 µM.
Take `C[C@]12CC[C@H]3[C@@H](CCC4=CC(=O)CC[C@@]43C)[C@@H]1CC[C@@H]2O` [TESTOSTERONE]: at Glucocorticoid receptor, the IC50 came to 3.21 µM and the affinity corresponds to a Ki of 1.46 µM.
